The IC50 is the concentration that gives 50% inhibition. What is called fraction unbound is the share of the substance not bound to proteins or other matrix. In general, EC50 refers to the midpoint of the concentration-response curve. Read a high EC50 as weaker potency. The pKa is the pH at which an ionisable group is half protonated. Low values mean a group that gives up its proton readily, high ones a group that holds its proton tightly.

The values that follow come from ChEMBL document CHEMBL1949590, “Discovery of a novel class of orally active trypanocidal N-myristoyltransferase inhibitors” (J Med Chem, 2012).

Activity calls are given as the source filed them. The calls are words filed in the database; no cut-off is given here.

The first data set deals with T1, Glycylpeptide N-tetradecanoyltransferase 1 (Homo sapiens, UniProt P30419).
T1 sequence (P30419 whole entry): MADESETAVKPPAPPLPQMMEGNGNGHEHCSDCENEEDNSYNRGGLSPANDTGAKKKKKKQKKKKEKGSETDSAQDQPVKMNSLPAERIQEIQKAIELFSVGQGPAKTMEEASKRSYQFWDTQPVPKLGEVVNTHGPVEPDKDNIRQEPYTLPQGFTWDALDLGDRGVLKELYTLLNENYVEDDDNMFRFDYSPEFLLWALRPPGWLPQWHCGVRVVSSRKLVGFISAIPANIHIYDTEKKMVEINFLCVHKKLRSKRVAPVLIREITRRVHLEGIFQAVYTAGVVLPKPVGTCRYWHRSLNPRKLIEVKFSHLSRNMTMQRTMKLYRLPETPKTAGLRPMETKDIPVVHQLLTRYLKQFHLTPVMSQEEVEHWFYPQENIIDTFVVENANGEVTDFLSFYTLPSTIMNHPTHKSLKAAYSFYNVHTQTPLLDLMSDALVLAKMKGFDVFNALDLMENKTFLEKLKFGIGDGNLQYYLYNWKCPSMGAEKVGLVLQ
Details: not given
Compound `Cc1nn(C)c(C)c1NS(=O)(=O)c1ccc(NCCN2CCN(c3ccccc3)CC2)nc1` gave an IC50 greater than 1 µM.

For the compound `Cc1nn(C)c(C)c1NS(=O)(=O)c1ccc(N2CCC(N3CCNCC3)C2)nc1` (stereo not given), the IC50 is 1.6 µM.

`Cc1nn(C)c(C)c1NS(=O)(=O)c1ccc(Cl)nc1` yielded a 50% inhibitory concentration (IC50) greater than 100 µM.

The compound `Cc1nn(C)c(C)c1NS(=O)(=O)c1ccc(NCCN2CCN(Cc3ccccc3)CC2)nc1` yielded an IC50 greater than 10 µM.

`Cc1nn(C)c(C)c1NS(=O)(=O)c1c(Cl)cc(-c2cccc3cnccc23)cc1Cl` returned a 50% inhibitory concentration (IC50) greater than 100 µM.

Regarding `Cc1nn(C)c(C)c1NS(=O)(=O)c1ccc(NCCCn2ccnc2)nc1`, the IC50 was determined as 8.7 µM.

Compound `Cc1nn(C)c(C)c1NS(=O)(=O)c1c(Cl)cc(-c2cccc3c2CCNC3)cc1Cl` had a half-maximal inhibitory concentration (IC50) of 4.3 µM.

As for `Cc1nn(C)c(C)c1NS(=O)(=O)c1c(Cl)cc(-c2ccc(CN3CCN(C)CC3)cc2)cc1Cl`, inhibition was half-maximal at 4.2 µM (IC50).

Consider `Cc1nn(C)c(C)c1NS(=O)(=O)c1ccc(NCc2ccc3[nH]ccc3c2)nc1`, for which the IC50 was 2.7 µM.

`Cc1nn(C)c(C)c1NS(=O)(=O)c1ccc(NCCCN2CCN(C)CC2)nc1` showed an IC50 of 2.4 µM.

As for `Cc1nn(C)c(C)c1NS(=O)(=O)c1ccc(NCCN2CCN(C(C)C)CC2)nc1`, the IC50 is greater than 1 µM.

Compound `Cc1nn(C)c(C)c1NS(=O)(=O)c1ccc(NCCN2CCN(C(=O)OC(C)(C)C)CC2)nc1` yielded a half-maximal inhibitory concentration (IC50) greater than 10 µM.

The next data set has as its system Trypanosoma brucei brucei. Kind of data set: Antitrypanosomal activity against Trypanosoma brucei brucei GVR35 infected in NMRI mouse assessed as increase in survival time at 100 mg/kg, po bid administered on day 21 post infection for 5 days after 21 days relative to control. The format is functional, organism-based. On the set-up: dose 100 mg/kg.
Details: not given
`Cc1nn(C)c(C)c1NS(=O)(=O)c1c(Cl)cc(-c2ccnc(N3CCNCC3)c2)cc1Cl` [listing 1 of 2 here]: the Survival entry is “inactive”.

Tested on in another data set: not listed separately
Kind of data set: Fraction unbound in mouse plasma. Format: ADME, cell-free.
Details: not given
`Cc1nn(C)c(C)c1NS(=O)(=O)c1c(Cl)cc(-c2ccnc(N3CCNCC3)c2)cc1Cl` [listing 2 of 2 here] displayed a fraction unbound of 0.11.

A further data set relates to Trypanosoma brucei brucei. The data set is described as follows: Antitrypanosomal activity against Trypanosoma brucei brucei GVR35 infected in NMRI mouse assessed as increase in survival time at 20 mg/kg, ip qd for 5 days measured after 180 days. Format: functional. The note with it: route intraperitoneal.
Regarding `Nc1nc(N)nc(Nc2ccc([As]3SCC(CO)S3)cc2)n1` (stereo not given) [MELARSOPROL], the survival at 20 mg/kg amounted to 100%.

A further data set deals with Trypanosoma brucei. The data set is described as follows: Antimicrobial activity against blood stream form Trypanosoma brucei BSF427 expressing VSG118 after 69 hrs by resazurin-based fluorescent assay. The format is functional, organism-based. The conditions noted are these: BSF427, 69 h. A general note: Alamar Blue is a resazurin reagent that responds to reducing activity.
In turn, `Cc1nn(C)c(C)c1NS(=O)(=O)c1c(Cl)cc(-c2ccc(CN3CCN(C)CC3)cc2)cc1Cl` showed an EC50 of 3.6 µM.

Tested on in the next data set: not listed separately
The data set is described as follows: Dissociation constant, pKa of the compound. Format: physicochemical.
Details: not given
`Cc1nn(C)c(C)c1NS(=O)(=O)c1ccc(NCCN2CCN(C)CC2)nc1`: the pKa is 7.9.

Take `Cc1nn(C)c(C)c1NS(=O)(=O)c1ccc(NCCN2CCNCC2)nc1`: the pKa was 9.3.

The compound `Cc1nn(C)c(C)c1NS(=O)(=O)c1ccc(NCCCn2ccnc2)nc1` came in with a pKa of 7.1.

As for `Cc1nn(C)c(C)c1NS(=O)(=O)c1ccc(NCCC2CCN(C)CC2)nc1`, the pKa was 9.6.
